In PubChem BioAssay AID1117322:
Active and inactive are the calls of the source. The rule behind the calls is not given here.

Test system: RKO cells viability, CellTiter-Glo ATP luminescence
Assay: RKO cell viability reduction, dose response, CellTiter-Glo luminescence (AID 1117322)

Row | Structure (SMILES) | IC50
1 | CCCCCCCCCCCCCC[N+](C)(C)C | 0.147 µM
2 | O=C(O)C1(C(=O)O)CCC1.[NH2-].[NH2-].[Pt+2] | > 20 µM (inactive)
3 | CC(=O)[O][Hg][c]1ccccc1 | 1.2 µM
4 | OCCN1CCN(CC/C=C2/c3ccccc3Sc3ccc(C(F)(F)F)cc32)CC1 | 0.318 µM
5 | O=C1[O][Bi][O]c2ccccc21 | > 20 µM (inactive)
6 | CC(C)n1c(/C=C/[C@@H](O)C[C@@H](O)CC(=O)O)c(-c2ccc(F)cc2)c2ccccc21 | 19.2 µM (inactive)
7 | O=Cc1ccc(O)c(O)c1O | 6.23 µM (inactive)
